Reference: the NIST ThermoML archive (doi:10.1016/j.jct.2016.01.001)

Assay: mn = molality of the nth substance listed, in mol/kg
Conditions: 298.15 K, Ring tensiometer

CC(C)Cc1ccc(C(C)C(=O)[O-])cc1.[Na+] (stereo not drawn) [sodium ibuprofen] + O
Conditions | surface tension liquid-gas [mN/m]
m1 = 0.0022 | 62.35
m1 = 0.00438 | 60.76
m1 = 0.00873 | 58.91
m1 = 0.0216 | 54.52
m1 = 0.032 | 51.62
m1 = 0.0423 | 48.38
m1 = 0.0524 | 45.51
m1 = 0.0671 | 42.39
m1 = 0.0815 | 40.24
m1 = 0.1 | 38.27
m1 = 0.118 | 36.11
m1 = 0.135 | 34.85
m1 = 0.16 | 33.01
m1 = 0.183 | 32.02
m1 = 0.206 | 31.74
m1 = 0.227 | 31.72
m1 = 0.247 | 31.73
m1 = 0.267 | 31.72
